Data as given in patent US20170209408A1, “HSP90 INHIBITORS FOR THE TREATMENT OF OBESITY AND METHODS OF USE THEREOF” (The Children's Medical Center Corporation, priority 2014, published 2017).
Entries after “also recorded” stand apart in the source; their conditions may differ.

Assays:
[1] = rating from cited sources, cited from earlier work
lean mice = assay: Body weight and food intake in 10-week old lean mice on chow diet, i.p. injection; type: in vivo; settings: three weeks
Procedure: Gambogic acid was administered to 10-week old lean mice on chow diet at 0.5 mg/kg for three weeks by i.p. injections. […] Tanespimycin was administered to 10-week old lean mice on chow diet at 15 mg/kg for three weeks by i.p. injections. […] NVP-AUY922 was administered to 10-week old lean mice on chow diet at 15 mg/kg for three weeks by i.p. injections.

HFD-fed obese mice = assay: Body weight and food intake in high fat diet (HFD)-fed obese mice, daily i.p. injection; type: in vivo, C57Bl/6J mice; settings: three weeks, vs DMSO vehicle
Procedure: To investigate whether gambogic acid can act as an anti-obesity drug by increasing leptin sensitivity and reducing appetite, C57Bl/6J mice were placed on a high fat diet (HFD; Research Diets, D12451, 45 kcal % fat) feeding for 16 weeks. After establishment of obesity and leptin resistance, mice were administered gambogic acid (at 0.5 mg/kg, in 25 μl DMSO, once per day) and vehicle (DMSO, 25 μl) with intraperitoneal (i.p.) injection. The animals had free access to food and water unless otherwise stated. In all experiments, three days prior to drug administration, the animals went through an acclimation period where they were given DMSO (25 μl) to reduce the effect of stress created by i.p. injection. Following three days acclimation, mice were administered gambogic acid daily i.p. injections at 0.5 mg/kg for three weeks in 25 μl of DMSO as vehicle, whereas the control group received the same volume of DMSO. […] To investigate whether tanespimycin can act as an anti-obesity drug by increasing leptin sensitivity and reducing appetite, C57Bl/6J mice were placed on a high fat diet (HFD; Research Diets, D12451, 45 kcal % fat) feeding for 16 weeks. After establishment of obesity and leptin resistance, mice were administered tanespimycin (at 15 mg/kg, in 25 μl DMSO, once per day) and vehicle (DMSO, 25 μl) with intraperitoneal (i.p.) injection. The animals had free access to food and water unless otherwise stated. In all experiments, three days prior to drug administration, the animals went through an acclimation period where they were given DMSO (25 μ1) to reduce the effect of stress created by i.p. injection. Following three days acclimation, mice were administered tanespimycin daily i.p. injections at 15 mg/kg for three weeks in 25 μl of DMSO as vehicle, whereas the control group received the same volume of DMSO. […] To investigate whether NVP-AUY922 can act as an anti-obesity drug by increasing leptin sensitivity and reducing appetite, C57Bl/6J mice were placed on a high fat diet (HFD; Research Diets, D12451, 45 kcal % fat) feeding for 16 weeks. After establishment of obesity and leptin resistance, mice were administered NVP-AUY922 (at 15 mg/kg, in 25 μl DMSO, once per day) and vehicle (DMSO, 25 μl) with intraperitoneal (i.p.) injection. The animals had free access to food and water unless otherwise stated. In all experiments, three days prior to drug administration, the animals went through an acclimation period where they were given DMSO (25 μ1) to reduce the effect of stress created by i.p. injection. Following three days acclimation, mice were administered NVP-AUY922 daily i.p. injections at 15 mg/kg for three weeks in 25 μl of DMSO as vehicle, whereas the control group received the same volume of DMSO.

[2] = system: leptin receptor deficient (db/db) mice; assay: Body weight and food intake in leptin receptor deficient (db/db) mice; type: in vivo; settings: 0.5 mg/kg once a day
Procedure: To explore whether gambogic acid's effect is leptin dependent, gambogic acid (0.5 mg/kg, once a day, in 25μ1 DMSO) was administered to leptin receptor deficient (db/db) mice.

[3] = 0.5 mg/kg i.p. once per day, 0.5 mg/kg

Compound: [Cr] [Chromium]
- Safety [1]: Likely safe

Compound: CCNC(=O)c1noc(-c2cc(C(C)C)c(O)cc2O)c1-c1ccc(CN2CCOCC2)cc1 [NVP-AUY922]
- food intake (lean mice; 15 mg/kg i.p.): failed to induce bodyweight loss or food intake
- body weight (lean mice; 15 mg/kg i.p., 15 mg/kg): little or no decrease; also recorded: failed to induce bodyweight loss
- body weight (HFD-fed obese mice; 15 mg/kg i.p. once per day): significantly decreased

Compound: CC(C)=CCC[C@]1(C)C=Cc2c(O)c3c(c(CC=C(C)C)c2O1)O[C@]12C(=C[C@@H]4C[C@H]1C(C)(C)O[C@@]2(C/C=C(/C)C(=O)O)C4=O)C3=O [gambogic acid]
- food intake [2]: continued to increase similar to the vehicle treated group
- body weight ([2]; 0.5 mg/kg): continued to increase similar to the vehicle treated group; also recorded: not in db/db mice
- body weight (lean mice; 0.5 mg/kg i.p., 0.5 mg/kg): little or no decrease; also recorded: failed to induce bodyweight loss
- food intake (lean mice; 0.5 mg/kg i.p., 0.5 mg/kg): failed to induce bodyweight loss or food intake
- food intake (lean mice; 0.5 mg/kg i.p., listed as SR-03, 0.5 mg/kg): little or no effect
- body weight (HFD-fed obese mice; [3]): significantly decreased; also recorded: decreased body weight
- food intake (HFD-fed obese mice; [3]): significantly decreased
- food intake (HFD-fed obese mice; 0.5 mg/kg i.p. once per day, listed as SR-03, 0.5 mg/kg): significant decrease

Compound: Conjugated linoleic acid
- Safety [1]: Possibly safe
- Effectiveness ([1]; weight loss): Possibly effective
